From paper PMC12775434, “Ultra-large virtual screening unveils potent agonists of the neuromodulatory orphan receptor GPR139” (Nature Communications, 2025) come the findings set out here.

Values joined by “and” are separate entries in the source; they are usually repeats but may differ in a detail not shown here. Equal entries are not always repeated.

This assay concerns the target T1, GPR139 (Homo sapiens, UniProt Q6DWJ6).
T1 sequence (Q6DWJ6 1-353): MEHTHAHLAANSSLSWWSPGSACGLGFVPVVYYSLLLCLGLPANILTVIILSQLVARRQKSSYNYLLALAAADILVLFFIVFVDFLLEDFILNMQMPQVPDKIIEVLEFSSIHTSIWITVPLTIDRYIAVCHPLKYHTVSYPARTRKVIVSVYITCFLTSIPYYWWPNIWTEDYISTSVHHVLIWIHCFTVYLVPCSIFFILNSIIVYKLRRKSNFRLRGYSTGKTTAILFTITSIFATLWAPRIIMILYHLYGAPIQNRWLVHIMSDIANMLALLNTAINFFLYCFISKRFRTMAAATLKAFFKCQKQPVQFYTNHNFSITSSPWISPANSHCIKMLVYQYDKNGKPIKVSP
Kind of assay: Ca2+ mobilization assay, HEK293A cells transiently expressing GPR139. The note with it: for Emax: HEK293-A, normalized to JNJ-63533054 (JNJ(S)); for Emax / EC50: HEK293A transient; for EC50: Supplementary Table 6, read-out: pEC50 Ca2+ (converted); for Ca2+ signal (% of JNJ-63533054): replicate experiments. The format is cell-based. Here is the method: Primary screening and pharmacological characterization of compounds were performed using a CHO-K1 cell line that stably expresses human GPR139 (GPR139-CHOk1). The GPR139-CHOk1 cell line was kindly provided by H. Lundbeck A/S, Denmark[24]. GPR139-CHOk1 cells were grown in Ham’s F-12 Kaighn’s Modification Medium (ThermoFisher #21127030) supplemented with 10% dialyzed fetal bovine serum (US origin, ThermoFisher #26400044), 100 units/mL Penicillin-Streptomycin (ThermoFisher #15140122), and 1 mg/mL Geneticin (ThermoFisher #11811031). […] M1R-CHOk1 cells were purchased from The Missouri S&T cDNA Resource Center (#CEM100TN00). M1R-CHOk1 cells were grown in Ham’s F12 Medium (ThermoFisher #21765029) supplemented with 10% fetal bovine serum (Brazilian origin, ThermoFisher #10270106), 100 units/mL Penicillin-Streptomycin, and 0.25 mg/mL Geneticin. HEK293A cells transiently transfected with GPR139 were used for additional pharmacological assessment of signaling pathways activated by GPR139. HEK239A cells were generously provided by Dr. Asuka Inoue, Tohoku University, Japan. HEK293A cells were grown in Dulbecco’s Modified Eagle Medium (ThermoFisher #31966047) supplemented with 10% dialyzed fetal bovine serum and 100 units/mL Penicillin-Streptomycin. Cell lines were maintained at 37 °C in humidified incubator equilibrated with 5% CO2.
30,000 GPR139- or M1R-CHOk1 cells/well were seeded in black clear bottom tissue culture treated 96-well plates (Greiner #655090) and grown for 20–24 h. Cells were washed with HEPES buffer (Hank’s Balanced Salt Solution (HBBS) supplemented with 20 mM HEPES, 1 mM MgCl2, and 1 mM CaCl2; pH 7.4). Cells were loaded with 50 µL of 2 µM Fluo-4 AM dye (ThermoFisher #F14202) in HEPES buffer supplemented with 2.5 mM probenecid and 0.01% Pluronic F-68 (ThermoFisher #24040032) for 1 h at 37 °C. Cells were washed with HEPES buffer. 50 µL HEPES buffer supplemented with 2.5 mM probenecid was added, and the cells were incubated for 10 min at 37 °C before measurement. 50 µL test compounds diluted in HEPES buffer from DMSO stocks (final DMSO concentration of maximally 0.3%) were added automatically after baseline measurements. The intracellular calcium mobilization was measured on a FlexStation 3 Multimode Microplate Reader (Molecular Devices) at 37 °C with filters for excitation of 485 nm and emission of 525 nm.
HEK293A cells were reverse-transfected with human GPR139 for Ca^2+ mobilization experiments with transiently expressed GPR139. The construct has been generated and described previously by Nøhr et al.. DNA and Lipofectamine 2000 Transfection Reagent (ThermoFisher #11668019) were separately diluted in Opti-MEM I Reduced Serum Medium (ThermoFisher #31985070). 10 ng GPR139 DNA and 250 nL Lipofectamine were used for each well. The dilutions were incubated at room temperature for 5 min. Then, DNA and Lipofectamine dilutions were combined in 1:1 volumetric ratio and incubated at room temperature for 20 min to obtain the transfection solutions. 10 µL transfection solution and 20,000 cells in 100 µL growth medium were distributed in each well of black clear bottom tissue culture treated 96-well plates that were previously coated with poly-D-lysine (Sigma-Aldrich #P0899). Cells were grown for approximately 48 h. A calcium mobilization assay was performed as described.
Pharmacological data and statistical analyses were performed in GraphPad Prism v9–10 (Graphpad Software Inc., San Diego, CA), which are also specifically described in the figure and table legends. The functional assay responses were normalized to buffer (0%) and Lundbeck Cmp 1a or JNJ-63533054 (100%), for Ca^2+ and IP1 experiments in the GPR139-CHOk1 stable cell line or Ca^2+, G protein activation, and arrestin-3 recruitment experiments in the HEK293A cells transiently transfected with GPR139, respectively. Data are from at least three independent experiments, unless stated otherwise. […]

The Emax is the greatest response seen or fitted, relative to the assay's reference.

For `Cc1cscc1-c1nc(CC(=O)N[C@H](C)c2ccccc2)no1` [1.1(R)], the Emax was 139 ± 24% and the EC50 is 398 nM. The “Ca2+ signal (% of JNJ-63533054)” value (log [Compound] M -5.0) is 181 % of JNJ-63533054 and 86 % of JNJ-63533054 and 180 % of JNJ-63533054. Besides, the “Ca2+ signal (% of JNJ-63533054)” value (log [Compound] M -5.5) is 143 % of JNJ-63533054 and 96 % of JNJ-63533054 and 154 % of JNJ-63533054. The “Ca2+ signal (% of JNJ-63533054)” value (log [Compound] M -6.0) was 90 % of JNJ-63533054 and 77 % of JNJ-63533054 and 95 % of JNJ-63533054. Also, the “Ca2+ signal (% of JNJ-63533054)” value (log [Compound] M -6.5) was 70 % of JNJ-63533054 and 52 % of JNJ-63533054 and 66 % of JNJ-63533054. Besides, the “Ca2+ signal (% of JNJ-63533054)” value (log [Compound] M -7.0) is 15 % of JNJ-63533054 and 41 % of JNJ-63533054 and 28 % of JNJ-63533054. Moreover, the “Ca2+ signal (% of JNJ-63533054)” value (log [Compound] M -7.5) is -6.33 % of JNJ-63533054 and 15 % of JNJ-63533054 and 7 % of JNJ-63533054. In addition, the “Ca2+ signal (% of JNJ-63533054)” value (log [Compound] M -8.0) is -9 % of JNJ-63533054 and 14 % of JNJ-63533054 and -7 % of JNJ-63533054. Further, the “Ca2+ signal (% of JNJ-63533054)” value (log [Compound] M -8.5) is 4 % of JNJ-63533054 and 2.33 % of JNJ-63533054 and -0.667 % of JNJ-63533054. In addition, the “Ca2+ signal (% of JNJ-63533054)” value (log [Compound] M -9.0) is 8 % of JNJ-63533054 and 0.333 % of JNJ-63533054 and -15 % of JNJ-63533054.
`Cc1cscc1-c1nc(CC(=O)N[C@@H](C)c2ccccc2)no1` [1.1(S)]: the Emax worked out at 146 ± 16% and the EC50 was 12.6 nM. In addition, for the setting “log [Compound] M -5.0”, the “Ca2+ signal (% of JNJ-63533054)” value was 135 % of JNJ-63533054 and 150 % of JNJ-63533054. Moreover, for the setting “log [Compound] M -5.5”, the “Ca2+ signal (% of JNJ-63533054)” value is 108 % of JNJ-63533054 and 167 % of JNJ-63533054. Besides, the “Ca2+ signal (% of JNJ-63533054)” value (log [Compound] M -6.0) is 164 % of JNJ-63533054 and 119 % of JNJ-63533054 and 118 % of JNJ-63533054. Also, the “Ca2+ signal (% of JNJ-63533054)” value (log [Compound] M -6.5) was 143 % of JNJ-63533054 and 116 % of JNJ-63533054 and 108 % of JNJ-63533054. Under “log [Compound] M -7.0”, the “Ca2+ signal (% of JNJ-63533054)” value was 137 % of JNJ-63533054 and 106 % of JNJ-63533054 and 101 % of JNJ-63533054. Moreover, the “Ca2+ signal (% of JNJ-63533054)” value (log [Compound] M -7.5) was 103 % of JNJ-63533054 and 92 % of JNJ-63533054 and 129 % of JNJ-63533054. Besides, the “Ca2+ signal (% of JNJ-63533054)” value (log [Compound] M -8.0) is 70 % of JNJ-63533054 and 74 % of JNJ-63533054 and 57 % of JNJ-63533054. Moreover, the “Ca2+ signal (% of JNJ-63533054)” value (log [Compound] M -8.5) is 28 % of JNJ-63533054 and 33 % of JNJ-63533054 and 37 % of JNJ-63533054. The “Ca2+ signal (% of JNJ-63533054)” value (log [Compound] M -9.0) is 29 % of JNJ-63533054 and 19 % of JNJ-63533054 and 13 % of JNJ-63533054.
For `C[C@@H](NC(=O)CNC(=O)c1cccc(Cl)c1)c1ccccc1` [JNJ(R), reference compound], the Emax was found to be 101 ± 18% and the EC50 was 1260 nM. Under “log [Compound] M -5.0”, the “Ca2+ signal (% of JNJ-63533054)” value is 95 % of JNJ-63533054 and 63 % of JNJ-63533054 and 134 % of JNJ-63533054. Moreover, the “Ca2+ signal (% of JNJ-63533054)” value (log [Compound] M -5.5) was 58 % of JNJ-63533054 and 81 % of JNJ-63533054 (2×). In addition, the “Ca2+ signal (% of JNJ-63533054)” value (log [Compound] M -6.0) is 27 % of JNJ-63533054 and 52 % of JNJ-63533054 and 38 % of JNJ-63533054. Besides, the “Ca2+ signal (% of JNJ-63533054)” value (log [Compound] M -6.5) is 14 % of JNJ-63533054 and 29 % of JNJ-63533054 and 4.33 % of JNJ-63533054. Moreover, the “Ca2+ signal (% of JNJ-63533054)” value (log [Compound] M -7.0) was 7 % of JNJ-63533054 and 9 % of JNJ-63533054 and -10 % of JNJ-63533054. Besides, the “Ca2+ signal (% of JNJ-63533054)” value (log [Compound] M -7.5) was 5 % of JNJ-63533054 and 9 % of JNJ-63533054 and -13 % of JNJ-63533054. Moreover, where the note is “log [Compound] M -8.0”, the “Ca2+ signal (% of JNJ-63533054)” value is -3.33 % of JNJ-63533054 and 8 % of JNJ-63533054 and -14 % of JNJ-63533054. Where the note is “log [Compound] M -8.5”, the “Ca2+ signal (% of JNJ-63533054)” value is -0.667 % of JNJ-63533054 and 11 % of JNJ-63533054 and -10 % of JNJ-63533054. The “Ca2+ signal (% of JNJ-63533054)” value (log [Compound] M -9.0) was -2.67 % of JNJ-63533054 and 15 % of JNJ-63533054 and -6 % of JNJ-63533054.
Regarding `CC(NC(=O)CNC(=O)c1cccc(Cl)c1)c1ccccc1` (centres unmarked) [JNJ-63533054, reference compound], the Emax is 133 ± 14% and the EC50 is 15.8 nM. Moreover, the “Ca2+ signal (% of JNJ-63533054)” value (log [Compound] M -5.0, listed as JNJ (S)) was 174 % of JNJ-63533054 and 107 % of JNJ-63533054 and 106 % of JNJ-63533054. Besides, for the setting “log [Compound] M -5.5, listed as JNJ (S)”, the “Ca2+ signal (% of JNJ-63533054)” value was 140 % of JNJ-63533054 and 98 % of JNJ-63533054 and 168 % of JNJ-63533054. The “Ca2+ signal (% of JNJ-63533054)” value (log [Compound] M -6.0, listed as JNJ (S)) was 143 % of JNJ-63533054 and 109 % of JNJ-63533054 and 138 % of JNJ-63533054. Where the note is “log [Compound] M -6.5, listed as JNJ (S)”, the “Ca2+ signal (% of JNJ-63533054)” value was 110 % of JNJ-63533054 and 107 % of JNJ-63533054 and 98 % of JNJ-63533054. Under “log [Compound] M -7.0, listed as JNJ (S)”, the “Ca2+ signal (% of JNJ-63533054)” value was 101 % of JNJ-63533054 and 88 % of JNJ-63533054 and 92 % of JNJ-63533054. For the same molecule, under “log [Compound] M -7.5, listed as JNJ (S)”, the “Ca2+ signal (% of JNJ-63533054)” value is 90 % of JNJ-63533054 and 115 % of JNJ-63533054 and 68 % of JNJ-63533054. For the same molecule, the “Ca2+ signal (% of JNJ-63533054)” value (log [Compound] M -8.0, listed as JNJ (S)) is 51 % of JNJ-63533054 and 82 % of JNJ-63533054 and 41 % of JNJ-63533054. In addition, under “log [Compound] M -8.5, listed as JNJ (S)”, the “Ca2+ signal (% of JNJ-63533054)” value is 37 % of JNJ-63533054 and 28 % of JNJ-63533054 and 33 % of JNJ-63533054. The “Ca2+ signal (% of JNJ-63533054)” value (log [Compound] M -9.0, listed as JNJ (S)) is 13 % of JNJ-63533054 and 3.67 % of JNJ-63533054 and 12 % of JNJ-63533054.
